{"source": "patent US20120107323A1", "about": "“KINASE PROTEIN BINDING INHIBITORS” (University of Florida, priority 2009, published 2012)", "key": {"normal human melanocytes": {"test_system": "normal human melanocytes", "test": "Cell viability (MTT), melanocytes", "format": "cell-based", "conditions": "Melanocyte, Melonocyte, 72 hours, read-out: IC50 of INT2-31, cell viability", "method": "(§1) Cell viability (MTT) and CFSE Proliferation assay: Cells were plated in 96-well plates and let adhere overnight. After cell treatment, cell viability was measured by 3-(4,5-dimethylthiazol-2-yl)-2,5-diphenyl tetrazolium bromide (MTT) assay (CellTiter 96® Aqueous, Promega, Madison, Wis.).\n(§2) Cell viability and detachment assays: After cells were treated with siRNA transfection, cell viability was measured by 3-(4,5-dimethylthiazol2-yl)-2,5-diphenyl tetrazolium bromide (MTT) assay (CellTiter 96® AQueous, Promega, Madison, Wis.). Briefly, 20 μl of the tetrazolium compound was added to each well. The cells were then incubated at 37° C. for 1 h. The plate was read at 490 nm with a plate reader to determine the viability. In detachment assays, detached and attached cells were harvested separately and counted in a hemocytometer. The percentage of detachment was calculated by dividing the number of detached cells by the total number of cells. Apoptosis assays: After treatment, attached and detached cells were collected, counted and prepared for terminal uridine deoxynucleotidyl transferase (TUNEL) assay by utilizing an APO-BRDU kit (BD Pharmingen, San Diego, Calif.) according to the manufacturer's instructions. Stained cells were analyzed with a fluorescence-activated cell sorting-Calibur flow cytometer (BD Biosciences). […] Apoptotic cells were also analyzed by Hoechst staining. […]"}, "[1]": {"test_system": "TE3 esophageal cancer cells", "test": "Cell viability (MTT), TE3", "format": "cell-based", "conditions": "TE3, 72 hours; read-out: IC50 of INT2-31, cell viability", "method": "as §1, §2"}, "[2]": {"test_system": "KYSE70 esophageal cancer cells", "test": "Cell viability (MTT), KYSE70", "format": "cell-based", "method": "as §1\n(§3) Cell viability and detachment assays: After cells were treated with siRNA transfection, cell viability was measured by 3-(4,5-dimethylthiazol2-yl)-2,5-diphenyl tetrazolium bromide (MTT) assay (CellTiter 96® AQueous, Promega, Madison, Wis.). Briefly, 20 μl of the tetrazolium compound was added to each well. The cells were then incubated at 37° C. for 1 h. The plate was read at 490 nm with a plate reader to determine the viability. In detachment assays, detached and attached cells were harvested separately and counted in a hemocytometer. The percentage of detachment was calculated by dividing the number of detached cells by the total number of cells. Apoptosis assays: After treatment, attached and detached cells were collected, counted and prepared for terminal uridine deoxynucleotidyl transferase (TUNEL) assay by utilizing an APO-BRDU kit (BD Pharmingen, San Diego, Calif.) according to the manufacturer's instructions. Stained cells were analyzed with a fluorescence-activated cell sorting-Calibur flow cytometer (BD Biosciences). Calculation of the percentage of apoptotic cells in the sample was completed with CellQuest software (BD Biosciences). Apoptotic cells were also analyzed by Hoechst staining. Hoechst 33342 ([…]) was added to the fixed cells and the specimens were mounted on glass coverslips. The slides were viewed under the Zeiss microscope for apoptotic nuclei. The percent of apoptotic cells was calculated as the ratio of apoptotic cells to total number of cells.\n(§4) In addition, the effect of INT2-31 on cell viability of esophageal, pancreatic and breast cancer cell lines was analyzed and the IC50 value for each cell line was determined, as shown in Table 1. […] Similar to melanoma results, INT2-31 inhibits viability more in cancer cells compared to normal cells. Sensitivity of the cells to INT2-31 varied and directly correlated to the FAK and IGF-1R expression level of the cells."}, "[3]": {"test_system": "KYSE140 esophageal cancer cells", "test": "Cell viability (MTT), KYSE140", "format": "cell-based", "method": "as §1, §3, §4"}, "[4]": {"test_system": "Miapaca-2 pancreatic cancer cells", "test": "Cell viability (MTT), Miapaca-2", "format": "cell-based", "method": "as §1, §2"}, "[5]": {"test_system": "AsPC1 pancreatic cancer cells", "test": "Cell viability (MTT), AsPC1", "format": "cell-based", "conditions": "Homo sapiens; AsPC1, 72 hours; read-out: IC50 of INT2-31, cell viability", "method": "as §1, §2"}, "MCF7 breast cancer cells": {"test_system": "MCF7 breast cancer cells", "test": "Cell viability (MTT), MCF7", "format": "cell-based", "conditions": "Homo sapiens; MCF7, 72 hours; read-out: IC50 of INT2-31, cell viability", "method": "as §1, §2"}, "[6]": {"test_system": "esophageal patient #5 cells", "test": "Cell viability (MTT), esophageal patient #5 cells", "format": "cell-based", "conditions": "Homo sapiens, average IC50", "method": "as §1\nTo assimilate the effects of targeting the interaction of these proteins in direct patient specimens, a system was developed in which direct esophageal cancer specimens were grown in mice and tissue culture plates to allow fresh human tissue for experimentation. More than 20 tumors and corresponding normal tissue specimens have been obtained from cancer patients. […] To evaluate the in vitro effects of INT2-31 on patient specimens, we utilized MTT assay of cells grown in a tissue culture plate maximum up to eight passages were utilized."}, "FAK": {"molecular_target": "FAK (Homo sapiens, UniProt Q05397)", "sequence (Q05397 whole entry)": "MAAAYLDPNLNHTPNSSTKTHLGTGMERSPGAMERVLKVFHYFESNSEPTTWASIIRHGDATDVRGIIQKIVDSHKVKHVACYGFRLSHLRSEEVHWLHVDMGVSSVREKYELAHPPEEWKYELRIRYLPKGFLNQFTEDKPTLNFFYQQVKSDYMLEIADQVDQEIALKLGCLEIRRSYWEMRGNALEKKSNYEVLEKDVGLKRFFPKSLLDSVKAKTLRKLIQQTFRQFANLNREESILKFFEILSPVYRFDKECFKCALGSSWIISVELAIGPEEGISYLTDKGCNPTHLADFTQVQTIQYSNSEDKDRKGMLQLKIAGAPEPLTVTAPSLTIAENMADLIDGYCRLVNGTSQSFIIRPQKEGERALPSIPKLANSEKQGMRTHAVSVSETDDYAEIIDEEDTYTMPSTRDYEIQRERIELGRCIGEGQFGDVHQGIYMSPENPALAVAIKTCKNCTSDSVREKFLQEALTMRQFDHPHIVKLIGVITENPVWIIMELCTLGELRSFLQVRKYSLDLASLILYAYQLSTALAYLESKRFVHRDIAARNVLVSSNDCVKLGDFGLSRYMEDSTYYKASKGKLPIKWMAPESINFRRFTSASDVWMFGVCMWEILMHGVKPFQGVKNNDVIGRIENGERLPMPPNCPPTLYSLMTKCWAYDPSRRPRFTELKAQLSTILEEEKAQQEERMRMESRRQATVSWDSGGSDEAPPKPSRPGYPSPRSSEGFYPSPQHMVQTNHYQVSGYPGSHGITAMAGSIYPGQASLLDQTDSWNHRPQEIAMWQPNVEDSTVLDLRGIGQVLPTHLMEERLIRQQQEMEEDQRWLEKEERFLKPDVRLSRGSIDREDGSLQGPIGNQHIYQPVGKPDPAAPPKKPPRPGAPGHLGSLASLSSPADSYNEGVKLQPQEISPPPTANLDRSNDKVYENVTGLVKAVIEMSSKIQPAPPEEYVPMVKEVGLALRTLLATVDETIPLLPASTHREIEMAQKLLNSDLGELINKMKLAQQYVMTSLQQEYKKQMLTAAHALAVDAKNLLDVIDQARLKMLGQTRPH", "test": "Kinase profiler screening, FAK", "format": "biochemical", "conditions": "1 μM compound, 10 μM ATP", "method": "Kinase Profiler Screening: Kinase specificity screening was performed with Invitrogen's SelectScreen® Kinase Profiling Services http://www.invitrogen.com/site/us/en/home/Products-and-Services/Services/Discoverv-Research/SelectScreen-Profiling-Service/SelectScreen-Kinase-Profiling-Service.html. The screening was performed with 1 μM compound, INT2-31, 10 μM ATP, and kinase substrates against ten recombinant kinases according to Z′-LYTET™ Kinase Assay. For PI3 kinase activity, 100 μM ATP, and kinase substrate were utilized with the Invitrogen Adapta® Universal Kinase Assay protocol. Tumor Growth in Nude Mice in vivo: Six week old athymic, female nude mice were purchased from Harlan Laboratory. The mice were maintained in the animal facility, and all experiments were performed in compliance with NIH animal-use guidelines and under an IACUC approved protocol. Melanoma cells were injected, 5×10^6 cells, subcutaneously. When the tumor size reached 100 mm^3, the INT2-31 was introduced by intraperitoneal injection at a dose of 15 mg/kg daily for 21 days. Tumor diameters were measured with calipers, and tumor volume in mm^3 was calculated using the formula [(width)^2×length]/2. At the end of experiment, tumor weight and volume were determined."}, "A375 melanoma cells": {"test_system": "A375 melanoma cells", "test": "CFSE cell proliferation assay, A375", "format": "cell-based, human", "method": "For staining with CFSE (Molecular Probes, Eugene, Oreg.)., 1×10^7/ml cells were suspended in PBS and incubated at 37° C. for 5 min with the 10 μM of CFSE. Stained cells were cultured with medium alone or with inhibitor for 24, 48, and 72 hours, fixed and analyzed by a FACS Calibur cytometer (Becton Dickinson, San Jose, Calif.)."}, "IGF-1R+/+ and −/− MEFs": {"test_system": "IGF-1R+/+ and −/− MEFs", "test": "MTT assay on IGF-1R wildtype and null fibroblasts", "format": "cell-based, mouse", "method": "as §1\nCell proliferation assay: Cell proliferation assay (Promega) using CellTiter 96 aqueous one solution was performed by adding a small amount of the One Solution Reagent directly to culture wells, incubating for 1-4 hours and then recording absorbance at 490 nm with a spectrophotometric plate reader. The quantity of formazan product as measured by the amount of 490 nm absorbance was directly proportional to the number of living cells in culture.\nas §3"}}, "data": [{"smiles": "CSc1ncnc2c1ccn2C1O[C@H](COP(=O)(O)O)[C@@H](O)[C@H]1O", "note": "(stereo partly drawn) [INT2-31, 4-(Methylthio)-7-(5-O-phosphono-D-ribofuranosyl)-{7H-Pyrrolo[2,3-d]pyrimidine}]", "values": [{"measurement": "IC50", "setting": "normal human melanocytes", "value": 97.3, "unit": "µM"}, {"measurement": "IC50", "setting": "[1]", "value": 5.6, "unit": "µM"}, {"measurement": "IC50", "setting": "[2]; Homo sapiens, KYSE-70, KYSE70, 72 hours, read-out: IC50 of INT2-31, cell viability", "value": 4.6, "unit": "µM"}, {"measurement": "effect of combination with 5-FU on cell viability", "setting": "[2]; KYSE 70, 0.5 and 1 μM INT2-31", "value": "synergistic effects"}, {"measurement": "sensitivity of cells to single-agent treatment", "setting": "[2]; KYSE 70, 72 hours", "value": "sensitive"}, {"measurement": "IC50", "setting": "[3]; Homo sapiens, KYSE-140, KYSE140, 72 hours, read-out: IC50 of INT2-31, cell viability", "value": 2500, "unit": "nM"}, {"measurement": "effect of combination with 5-FU on cell viability", "setting": "[3]; KYSE 140, 0.5 and 1 μM INT2-31", "value": "synergistic effects"}, {"measurement": "sensitivity of cells to single-agent treatment", "setting": "[3]; KYSE 140, 72 hours", "value": "sensitive"}, {"measurement": "IC50", "setting": "[4]; Homo sapiens, MIA PaCa-2, Miapaca-2, 72 hours, read-out: IC50 of INT2-31, cell viability", "value": 4.73, "unit": "µM"}, {"measurement": "cell viability (in words)", "setting": "[4]; MiaPaCa-2, 72 hours", "value": "inhibits the cell viability"}, {"measurement": "IC50", "setting": "[5]", "value": 16.9, "unit": "µM"}, {"measurement": "IC50", "setting": "MCF7 breast cancer cells", "value": 30, "unit": "nM"}, {"measurement": "IC50", "setting": "[6]", "value": 2180, "unit": "nM"}, {"measurement": "kinase activity of FAK", "setting": "FAK", "value": "did not inhibit"}, {"measurement": "cell proliferation (CSFE)", "setting": "A375 melanoma cells", "value": "inhibited cell proliferation"}, {"measurement": "proliferation of IGF-1R+/+ fibroblast cells", "setting": "IGF-1R+/+ and −/− MEFs; 0.05 μM, 72-hour treatment", "value": "reduced the proliferation"}, {"measurement": "proliferation of IGF-1R−/− cells", "setting": "IGF-1R+/+ and −/− MEFs; 0.05 μM, 72-hour treatment", "value": "no effect"}, {"measurement": "effect on IGF-1R wildtype compared to null fibroblasts", "setting": "IGF-1R+/+ and −/− MEFs; MTT, p<0.05", "value": "significantly less sensitive"}]}]}
